Legend:
Male Sprague Dawley rats = assay: Female Urine Sniffing Test (FUST); assay type: in vivo, rat; conditions: Example A, 24 hrs post-dose; for time spent sniffing female urine (FUST): mean±SEM, n=8
Description: Behavioral Analysis Using the Female Urine Sniffing Test (FUST): The FUST was conducted according to published procedures (Malkesman, O. et al, Biol Psychiatry 67(9): 864-71 (2010)), 24 hr post-dosing. Briefly, rats were habituated for 60 min to a cotton swab dipped in tap water in their home cage. Next, rats were exposed to a 2nd cotton swab dipped in tap water and 45 min later they were exposed to a 3rd cotton swab infused with fresh rat urine from 11 to 14-week-old female rats in estrus. The total time (s) spent sniffing the cotton-tipped applicator was quantitated over 5 min for each animal.
Study Design. Thirty-two (32) male Sprague Dawley Male rats weighing between 175 and 200 g were randomized into 4 study groups (n=8/treatment group), following a 5-day acclimation period. On study day 0, rats received a single dose of either saline (Sal) or ketamine (Ket) in Groups 1 and 2, respectively, by intraperitoneal injection (i.p.). The rats in Group 3 and 4 received a single dose of the NV-5138 vehicle (Veh, 0.5% Methylcellulose/0.1% Tween-80) or NV-5138 (160 mg/kg), respectively, by oral gavage. All rats were subjected to the FUST on day 1, 24 hrs after dosing. On day 2, 48 hrs after dosing, the LMA of all rats was measured in an open field. Rats were then fasted for 20 hrs and subjected to the NSFT, 72 hrs post-dose.
Preparation of Test Articles. Ket (Sigma, cat #K1884) was dissolved in Sal at a concentration of 10 mg/mL. A volume of 1 ml/kg of Sal or Ket was injected i.p. for Groups 1 and 2, respectively. NV-5138 (Navitor, lot #06) was prepared by dissolving in Veh (0.5% methylcellulose/0.1% Tween-80) at a concentration of 50 mg/mL. The dosing volume based on the weight of the animal (3.2 mL/kg) of Veh or NV-5138 was administered by oral gavage to study animals in Groups 3 and 4, respectively. Test articles were prepared the day of dosing.

[1] = test system: synaptic proteins (GluR1, Synapsin 1, PSD95); assay: Western blot of synaptic proteins in crude synaptosomes from rat prefrontal cortex; assay type: in vivo; conditions: for levels of GluR1 in crude PFC synaptosomes / levels of PSD95 in crude PFC synaptosomes / levels of Synapsin 1 in crude PFC synaptosomes: Example B, 24 hr after administration
Description: Study Design. Forty-eight (48) male Sprague Dawley rats weighing between 175 and 200 g were randomized into 8 study groups (n=6/group), following a 5-day acclimation period. On study day 0, rats in Groups 3 and 7 received a single dose of Sal while Groups 4 and 8 received a single dose of Ket (10 mg/kg) each by i.p. injection. […] One hour after dosing, rats in Groups 1-4 were sacrificed by conscious decapitation and followed by collection of the PFC. Crude synaptosomes were prepared from the PFC and three mTORC1 substrates, pmTOR, pp70S6K and p4E-BP1, and corresponding total protein loading controls (mTOR, p70S6K, and GAPDH) were quantitated by WB. Twenty-four hours after dosing, rats in Groups 5-8 were sacrificed by conscious decapitation and collection of the PFC. Crude synaptosomes were prepared from the PFC and the synaptic proteins (GluR1 and PSD95), as well as the total protein loading control (GAPDH), were quantitated by WB.
Prefrontal Cortex Synaptosome Preparations. The brain was dissected from rats in all groups (n=6/group) and rinsed in PBS. The PFC was collected as shown in FIG. 6 and homogenized at 4° C. in homogenization buffer (0.32 M sucrose, 20 mM HEPES at pH 7.4, 1 mM EDTA, 5 mM NaF, 1 mM NaVO3 and protease inhibitor cocktail (Roche; Ser. No. 19/543,200)). The homogenate was centrifuged for 10 min at 2,800 rpm at 4° C. after which the supernatant was removed and re-centrifuged at 12,000 rpm for 10 min at 4° C. The resulting pellet containing crude synaptosomes was re-suspended in Lysis buffer (50 mM Tris-HCl (pH 7.5), 150 mM NaCl, 1% Triton X-100, 0.1% SDS, 2 mM, EDTA, 1 mM NaVO3, 5 mM NaF and protease inhibitor cocktail) and sonicated on ice for 20 s at 50% amplitude. The protein concentration was determined by Bradford assay and all samples were mixed with loading buffer (60 mM Tris-HCl pH 6.8, 20 mM DTT, 2% SDS, 10% glycerol, 5% β-mercaptoethanol and 0.01% Bromophenol blue) and stored at -20° C. until WB analysis.
Western Blot Analysis: Western blot analysis for GluR1, PSD95 and GAPDH was performed as previously described. Briefly, synaptosomes preparations (15 μg total protein) were loaded into 10-15% SDS PAGE gel for electrophoresis and transferred to a polyvinylidene difluoride (PVDF) membrane in transfer buffer (10× premixed electrophoresis buffer contains 25 mM Tris, 192 mM glycine, pH 8.3; Bio-Rad). The PVDF membranes were blocked for 1 hr at room temperature with blocking buffer (2% BSA in PBS-T (10 mM Phosphate, pH 7.4, 2.7 mM KCl, 137 mM NaCl and 0.1% Tween-20)) and subsequently incubated with primary antibodies: rabbit anti-pmTOR at 1:1000 (Cell Signaling; #5536), rabbit anti-mTOR at 1:1000 (Cell Signaling; #2972), rabbit anti-pp70S6K at 1:1000 (Cell Signaling; #9205), rabbit anti-p70S6K at 1:1000 (Cell Signaling; #2708), rabbit anti-p4E-BP1 at 1:1000 (Cell Signaling; #2855), rabbit anti-GluR1 at 1:1000 (Cell Signaling; #13185), rabbit anti-Synapsin 1 at 1:1000 (Cell Signaling; #5297), rabbit anti-PSD95 at 1:1000 (Cell Signaling; #9644) and rabbit anti-GAPDH at 1:1000 (Cell Signaling; #5174) in blocking buffer overnight at 4° C. The next day, membranes were washed 3 times in PBS-T buffer and incubated with horseradish peroxidase conjugated anti-mouse or anti-rabbit secondary antibody at 1:5000 to 1:10000 (Vector Laboratories Inc) for 1 hr. After final three washes with PBS-T buffer, bands were detected using enhanced chemiluminescence. The blots then were incubated in the stripping buffer (2% SDS, 100 mM β-mercaptoethanol, 50 mM Tris-HCl pH 6.8) for 30 min at 50-55° C. followed by three washes with PBS-T buffer. The stripped blots were kept in blocking solution for 1 hr and incubated with the primary antibody directed against total levels of the respective protein or GAPDH for loading control. Densitometric analysis of phospho- and total immunoreactivity for each protein was conducted using NIH Image J software. […]

Row | Compound | time spent sniffing female urine (FUST) (Male Sprague Dawley rats; NV-5138 160 mg/kg oral single dose) [s] | increase in time spent sniffing female urine vs Veh (Male Sprague Dawley rats; NV-5138 160 mg/kg oral single dose, p<0.01) [fold] | levels of GluR1 in crude PFC synaptosomes ([1]; NV-5138 160 mg/kg oral) | levels of PSD95 in crude PFC synaptosomes ([1]; NV-5138 160 mg/kg oral) | levels of Synapsin 1 in crude PFC synaptosomes ([1]; NV-5138 160 mg/kg oral) | GluR1 in crude PFC synaptosomes ([1]; Example E, CUS rats, NV-5138 160 mg/kg oral, 24 hrs after second dose (day 5), p<0.01) | PSD95 in crude PFC synaptosomes ([1]; Example E, CUS rats, NV-5138 160 mg/kg oral, 24 hrs after second dose (day 5), p<0.05) | time spent sniffing female urine (FUST) (Male Sprague Dawley rats; Ket 10 mg/kg i.p. single dose) [s] | increase in time spent sniffing female urine vs Sal (Male Sprague Dawley rats; Ket 10 mg/kg i.p. single dose, p<0.05) [fold] | levels of GluR1 in crude PFC synaptosomes ([1]; Ket 10 mg/kg i.p.) | levels of PSD95 in crude PFC synaptosomes ([1]; Ket 10 mg/kg i.p.) | levels of Synapsin 1 in crude PFC synaptosomes ([1]; Ket 10 mg/kg i.p.)
1 | CC(C)(C[C@H](N)C(=O)O)C(F)F [NV-5138] | 33.8 ± 2.9 | 2.9 | significantly increased | trend toward increased expression | significantly increased | normalization | normalization | – | – | – | – | –
2 | CNC1(c2ccccc2Cl)CCCCC1=O (stereo not drawn) [Ket, ketamine, reference compound] | – | – | – | – | – | – | – | 36.5 ± 7.9 | 2.1 | significantly increased | significantly increased | significantly increased

From patent US20210228523A1, “MODULATORS OF SESTRIN-GATOR2 INTERACTION AND USES THEREOF” (Navitor Pharmaceuticals, Inc., priority 2017, published 2021)
